Assay results taken from patent US20240041042A1, “1-(PYRIDYL)-5-AZINYLPYRAZOLE DERIVATIVES, AND THEIR USE FOR CONTROL OF UNDESIRED PLANT GROWTH” (Bayer Aktiengesellschaft, priority 2020, published 2024).
Like-named read-outs stand apart in the source and are kept apart here.

What was measured:
Type in all cases: in vivo
[1] = tested on: Alopecurus myosuroides (ALOMY); assay: Pre-emergence herbicidal action against ALOMY; conditions: 320 g/ha; scored visually after about 3 weeks; 100% = plants have died
Summary of the method: (§1)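 Greenhouse pot trial: seeds sown, soil-covered, sprayed before emergence with compound in water (0.5% additive; 600 l/ha; ≤320 g/ha). Scoring visual, ~3 weeks, 0–100% scale vs untreated.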

[2] = tested on: Setaria viridis (SETVI); assay: Pre-emergence herbicidal action against SETVI
Summary of the method: as §1

[3] = tested on: Viola tricolor (VIOTR); assay: Pre-emergence herbicidal action against VIOTR
Summary of the method: as §1

[4] = tested on: Glycine max (GLXMA); conditions: pre-emergence, crop plant compatibility, in comparison to untreated controls
Summary of the method: (§2)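 Scoring: visual, % of untreated control, about 3 weeks after a pre-emergence application to the soil surface. Application used WP or EC formulations diluted in water with 0.5% additive at 600 l/ha; dosage levels are marked by suffixes a, b and c.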

[5] = tested on: Oryza sativa (ORYSA); conditions: pre-emergence, crop plant compatibility, in comparison to untreated controls
Summary of the method: as §2

[6] = tested on: Triticum aestivum (TRZAS); conditions: pre-emergence, crop plant compatibility, in comparison to untreated controls
Summary of the method: as §2

[7] = tested on: Zea mays (ZEAMX); conditions: pre-emergence, crop plant compatibility, in comparison to untreated controls
Summary of the method: as §2

[8] = tested on: Abutilon theophrasti (ABUTH); assay: Post-emergence herbicidal action against ABUTH; conditions: visual rating about 3 weeks after treatment vs untreated controls (100% = plants have died, 0% = like control plants)
Summary of the method: (§3)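 Doses of 320 g/ha or lower, suffixes a, b and c marking different dosages, were applied post-emergence at the one-leaf stage in 600 l/ha water with 0.5% additive. Damage was assessed visually after about 3 weeks in the greenhouse.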

[9] = tested on: Amaranthus retroflexus (AMARE); assay: Post-emergence herbicidal action against AMARE
Summary of the method: as §3

[10] = tested on: Oryza sativa (ORYSA); conditions: crop plant compatibility
Summary of the method: (§4)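 Percent effect on the crop was judged by eye against untreated controls, where 0% means like control and 100% means dead plants. Plants had been sprayed post-emergence at the one-leaf stage and then kept under optimum greenhouse conditions for about 3 weeks.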

[11] = tested on: Triticum aestivum (TRZAS); conditions: crop plant compatibility, effect vs untreated controls
Summary of the method: as §4

[12] = tested on: Amaranthus retroflexus (AMARE); assay: Pre-emergence herbicidal action against AMARE; conditions: visual scoring after about 3 weeks vs untreated controls
Summary of the method: as §1

[13] = tested on: Echinochloa crus-galli (ECHCG); assay: Pre-emergence herbicidal action against ECHCG; conditions: dosage 320 g/ha
Summary of the method: as §1

[14] = tested on: Lolium rigidum (LOLRI); assay: Pre-emergence herbicidal action against LOLRI; conditions: dosage 320 g/ha
Summary of the method: as §1

[15] = tested on: Matricaria inodora (MATIN); assay: Pre-emergence herbicidal action against MATIN
Summary of the method: as §1

[16] = tested on: Pharbitis purpurea (PHBPU); assay: Pre-emergence herbicidal action against PHBPU
Summary of the method: as §1

[17] = tested on: Polygonum convolvulus (POLCO); assay: Pre-emergence herbicidal action against POLCO
Summary of the method: as §1

[18] = tested on: Alopecurus myosuroides (ALOMY); assay: Post-emergence herbicidal action against ALOMY; conditions: visual rating about 3 weeks after treatment vs untreated controls (100% = plants have died, 0% = like control plants)
Summary of the method: as §3

[19] = tested on: Avena fatua (AVEFA); assay: Post-emergence herbicidal action against AVEFA; conditions: visual rating about 3 weeks after treatment
Summary of the method: as §3

[20] = tested on: Echinochloa crus-galli (ECHCG); assay: Post-emergence herbicidal action against ECHCG
Summary of the method: as §3

[21] = tested on: Lolium rigidum (LOLRI); assay: Post-emergence herbicidal action against LOLRI; conditions: dosage 320 g/ha
Summary of the method: as §3

[22] = tested on: Matricaria inodora (MATIN); assay: Post-emergence herbicidal action against MATIN
Summary of the method: as §3

[23] = tested on: Pharbitis purpurea (PHBPU); assay: Post-emergence herbicidal action against PHBPU
Summary of the method: as §3

[24] = tested on: Polygonum convolvulus (POLCO); assay: Post-emergence herbicidal action against POLCO; conditions: dosage 320 g/ha
Summary of the method: as §3

[25] = tested on: Setaria viridis (SETVI); assay: Post-emergence herbicidal action against SETVI
Summary of the method: as §3

[26] = tested on: Verconica persica (VERPE); assay: Post-emergence herbicidal action against VERPE; conditions: 320 g/ha, VERPE
Summary of the method: as §3

[27] = tested on: Viola tricolor (VIOTR); assay: Post-emergence herbicidal action against VIOTR
Summary of the method: as §3

[28] = tested on: Digitaria sanguinalis (DIGSA); assay: Pre-emergence herbicidal action against DIGSA; conditions: dosage 320 g/ha
Summary of the method: as §1

[29] = tested on: Zea mays (ZEAMX); conditions: crop plant compatibility, effect vs untreated controls
Summary of the method: as §4

[30] = 80 g/ha, visual rating about 3 weeks after treatment vs untreated controls (100% = plants have died, 0% = like control plants)
[31] = 80 g/ha, effect in comparison to untreated controls
[32] = 320 g/ha, visual rating about 3 weeks after treatment

CCOC(=O)COc1nn(-c2ccccn2)c(-c2ccc(F)nc2)c1C1CC1 [Example I-78]
0%: Pre-emergence action against GLXMA in % ([4]; 80 g/ha) | Pre-emergence action against ORYSA in % ([5]; 80 g/ha) | Pre-emergence action against ORYSA in % ([5]; 320 g/ha) | Pre-emergence action against TRZAS in % ([6]; 80 g/ha) | Pre-emergence action against ZEAMX in % ([7]; 80 g/ha) | Pre-emergence action against ZEAMX in % ([7]; 320 g/ha) | Post-emergence action against ORYSA in % ([10]; 20 g/ha, effect vs untreated controls) | Post-emergence action against TRZAS in % ([11]; 20 g/ha)
80%: Pre-emergence action against SETVI in % ([2]; dosage 320 g/ha) | Pre-emergence action against VIOTR in % ([3]; 320 g/ha, Viola tricolor) | Post-emergence action against ABUTH in % ([8]; 80 g/ha) | Post-emergence action against AMARE in % [9, 30]
90%: Pre-emergence action against ALOMY [1]
20%: Post-emergence action against ORYSA in % [10, 31] | Post-emergence action against TRZAS in % ([11]; 80 g/ha)

COC(=O)CSc1nn(-c2ccccn2)c(-c2cncc(F)c2)c1Br [Example I-151]
0%: Post-emergence action against ORYSA in % [10, 31]
100%: Pre-emergence action against ALOMY [1] | Pre-emergence action against AMARE in % ([12]; 320 g/ha) | Pre-emergence action against SETVI in % ([2]; dosage 320 g/ha) | Pre-emergence action against VIOTR in % ([3]; 320 g/ha, Viola tricolor) | Post-emergence action against AMARE in % [9, 32]
80%: Pre-emergence action against PHBPU in % ([16]; dosage 80 g/ha) | Pre-emergence action against PHBPU in % ([16]; dosage 320 g/ha) | Post-emergence action against ABUTH in % ([8]; 80 g/ha) | Post-emergence action against ABUTH in % ([8]; 320 g/ha) | Post-emergence action against ALOMY in % ([18]; 80 g/ha) | Post-emergence action against ALOMY in % ([18]; 320 g/ha) | Post-emergence action against MATIN in % ([22]; dosage 80 g/ha) | Post-emergence action against POLCO in % [24] | Post-emergence action against VIOTR in % ([27]; 80 g/ha)
90%: Pre-emergence action against AMARE in % ([12]; 80 g/ha) | Pre-emergence action against ECHCG in % [13] | Pre-emergence action against LOLRI in % [14] | Pre-emergence action against MATIN in % ([15]; dosage 80 g/ha) | Pre-emergence action against MATIN in % ([15]; dosage 320 g/ha) | Pre-emergence action against POLCO in % ([17]; dosage 320 g/ha) | Pre-emergence action against SETVI in % ([2]; dosage 80 g/ha) | Post-emergence action against AMARE in % [9, 30] | Post-emergence action against AVEFA in % ([19]; 80 g/ha) | Post-emergence action against AVEFA in % ([19]; 320 g/ha) | Post-emergence action against ECHCG in % ([20]; dosage 80 g/ha) | Post-emergence action against ECHCG in % ([20]; dosage 320 g/ha) | Post-emergence action against LOLRI in % [21] | Post-emergence action against MATIN in % ([22]; dosage 320 g/ha) | Post-emergence action against PHBPU in % ([23]; dosage 80 g/ha) | Post-emergence action against PHBPU in % ([23]; dosage 320 g/ha) | Post-emergence action against SETVI in % ([25]; dosage 80 g/ha) | Post-emergence action against SETVI in % ([25]; dosage 320 g/ha) | Post-emergence action against VERPE in % [26] | Post-emergence action against VIOTR in % ([27]; 320 g/ha)
10%: Pre-emergence action against GLXMA in % ([4]; 80 g/ha) | Pre-emergence action against TRZAS in % ([6]; 80 g/ha)
20%: Pre-emergence action against GLXMA in % ([4]; 320 g/ha)

COC(=O)COc1nn(-c2ncccc2C(F)(F)F)c(-c2cncc(F)c2)c1Br [Example I-206]
80%: Pre-emergence action against ALOMY [1] | Pre-emergence action against ECHCG in % [13] | Pre-emergence action against PHBPU in % ([16]; dosage 320 g/ha) | Pre-emergence action against POLCO in % ([17]; dosage 80 g/ha) | Pre-emergence action against POLCO in % ([17]; dosage 320 g/ha) | Post-emergence action against ALOMY in % ([18]; 320 g/ha) | Post-emergence action against ECHCG in % ([20]; dosage 320 g/ha) | Post-emergence action against MATIN in % ([22]; dosage 320 g/ha) | Post-emergence action against VERPE in % [26] | Post-emergence action against VIOTR in % ([27]; 320 g/ha)
0%: Pre-emergence action against TRZAS in % ([6]; 80 g/ha)
100%: Pre-emergence action against VIOTR in % ([3]; 320 g/ha, Viola tricolor)
10%: Pre-emergence action against GLXMA in % ([4]; 80 g/ha)
90%: Pre-emergence action against AMARE in % ([12]; 320 g/ha) | Pre-emergence action against DIGSA in % [28] | Pre-emergence action against MATIN in % ([15]; dosage 320 g/ha) | Pre-emergence action against VIOTR in % ([3]; dosage 80 g/ha) | Post-emergence action against PHBPU in % ([23]; dosage 320 g/ha)

O=C(O)COc1nn(-c2ccncc2)c(-c2ccc(F)nc2)c1Br [III-09]
80%: Pre-emergence action against AMARE in % ([12]; 320 g/ha) | Pre-emergence action against VIOTR in % ([3]; 320 g/ha, Viola tricolor) | Post-emergence action against AMARE in % [9, 32]
20%: Pre-emergence action against GLXMA in % ([4]; 80 g/ha)
0%: Pre-emergence action against ORYSA in % ([5]; 80 g/ha) | Pre-emergence action against ORYSA in % ([5]; 320 g/ha) | Pre-emergence action against TRZAS in % ([6]; 80 g/ha) | Pre-emergence action against TRZAS in % ([6]; 320 g/ha) | Pre-emergence action against ZEAMX in % ([7]; 80 g/ha) | Pre-emergence action against ZEAMX in % ([7]; 320 g/ha) | Post-emergence action against ORYSA in % [10, 31] | Post-emergence action against ORYSA in % ([10]; 320 g/ha, effect in comparison to untreated controls) | Post-emergence action against TRZAS in % ([11]; 80 g/ha) | Post-emergence action against TRZAS in % ([11]; 320 g/ha)
10%: Post-emergence action against ZEAMX in % ([29]; 80 g/ha) | Post-emergence action against ZEAMX in % ([29]; 320 g/ha)
